Reference: patent publication US9624241B2 (Incyte Corporation, priority 2013, dated 2017)
Structures can show the parent of a compound that is named as a salt. Where two headings read alike, the source gives them in different places.

What was measured:
BRD4-BD2 = BRD4-BD2 (Homo sapiens (Human), UniProt O60885); test: BRD4 AlphaScreen Assay (Example A2), BRD4-BD2; assay type: binding; conditions: read-out: BRD4 BD-2 enzyme IC50
How it was run: (§1)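 Displacement of 50 nM biotinylated tetra-acetylated histone H4 peptide from BRD4 BD1 or BD2 (<1 nM) in Tris-HCl pH 7.5 buffer with DTT. Inhibitors serially diluted in DMSO, added first, then incubated 75 min in the dark at room temperature before AlphaScreen read. IC50 fitted from percent control activity versus log concentration.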

BRD4-BD1 = BRD4-BD1 (Homo sapiens (Human), UniProt O60885); test: BRD4 AlphaScreen Assay (Example A2), BRD4-BD1; assay type: binding
How it was run: as §1

[1] = Assay A2, AlphaScreen, BRD4-BD2
[2] = Assay A2, AlphaScreen, BRD4-BD1, read-out: BRD4 BD-1 enzyme IC50

| SMILES | IC50 (BRD4-BD2; [1]) [nM] | IC50 (BRD4-BD1; [2]) [nM] | IC50 (BRD4-BD2) [nM] | IC50 (BRD4-BD1; read-out: BRD4 BD-1 enzyme IC50) [nM] | IC50 (BRD4-BD1) [nM] |
| --- | --- | --- | --- | --- | --- |
| Cc1noc(C)c1-c1ccc2[nH]c(=O)n3c2c1OCC3c1ccc(F)cn1 (stereo not drawn) [Example 19, 7-(3,5-Dimethylisoxazol-4-yl)-4-(5-fluoropyridin-2-yl)-4,5-dihydroimidazo[1,5,4-de][1,4]benzoxazin-2(1H)-one] | < 100 | < 100 |  |  |  |
| Cc1noc(C)c1-c1cc(CNC(=O)CN(C)C)c2[nH]c(=O)n3c2c1OC[C@@H]3c1ccccn1 [Example 143, 2-(Dimethylamino)-N-{[(4S)-7-(3,5-dimethylisoxazol-4-yl)-2-oxo-4-pyridin-2-yl-1,2,4,5-tetrahydroimidazo[1,5,4-de][1,4]benzoxazin-9-yl]methyl}acetamide] | < 100 | 100 to 1000 |  |  |  |
| CCOC(=O)/C=C/c1cc(-c2c(C)noc2C)c2c3c1[nH]c(=O)n3[C@@H](c1ccccn1)CO2 [Example 86, ethyl (2E)-3-[(4S)-7-(3,5-dimethylisoxazol-4-yl)-2-oxo-4-pyridin-2-yl-1,2,4,5-tetrahydroimidazo[1,5,4-de][1,4]benzoxazin-9-yl]acrylate 2,2,2-trifluoroacetate] | < 100 | 100 to 1000 |  |  |  |
| CNC(=O)C1(c2ccccn2)COc2c(-c3c(C)noc3C)ccc3[nH]c(=O)n1c23 (stereo not drawn) [Example 71, 7-(3,5-Dimethylisoxazol-4-yl)-N-methyl-2-oxo-4-pyridin-2-yl-1,2,4,5-tetrahydroimidazo[1,5,4-de][1,4]benzoxazine-4-carboxamide 2,2,2-trifluoroacetate] |  | 100 to 1000 | < 100 |  |  |
| Cc1n[nH]c(C)c1-c1cc(-c2c(C)noc2C)c2c3c1[nH]c(=O)n3C(c1ccccn1)CO2 (stereo not drawn) [Example 258, 7-(3,5-dimethylisoxazol-4-yl)-9-(3,5-dimethyl-1H-pyrazol-4-yl)-4-pyridin-2-yl-4,5-dihydroimidazo[1,5,4-de][1,4]benzoxazin-2(1H)-one] | 100 to 1000 | 1000 to 10000 |  |  |  |
| Cc1noc(C)c1-c1cc(Cl)c2[nH]c(=O)n3c2c1OCC3c1ccccn1 (single isomer, unassigned) [Example 266A, 9-chloro-7-(3,5-dimethylisoxazol-4-yl)-4-pyridin-2-yl-4,5-dihydroimidazo[1,5,4-de][1,4]benzoxazin-2(1H)-one] | < 100 | 100 to 1000 |  |  |  |
| Cc1noc(C)c1-c1ccc2[nH]c(=O)n3c2c1OCC3C1CCCCN1C(=O)NC(C)C (stereo not drawn) [Example 80, 2-[7-(3,5-dimethylisoxazol-4-yl)-2-oxo-1,2,4,5-tetrahydroimidazo[1,5,4-de][1,4]benzoxazin-4-yl]-N-isopropylpiperidine-1-carboxamide] | 1000 to 10000 | 1000 to 10000 |  |  |  |
| CC(=O)N1CCC(c2nc3ccc(-c4c(C)noc4C)c4c3n2[C@@H](c2ccccn2)CO4)CC1 [Example 109, (4S)-2-(1-Acetylpiperidin-4-yl)-7-(3,5-dimethylisoxazol-4-yl)-4-pyridin-2-yl-4,5-dihydroimidazo[1,5,4-de][1,4]benzoxazine] | < 100 | < 100 |  |  |  |
| COCC(=O)NCc1cc(-c2c(C)noc2C)c2c3c1[nH]c(=O)n3[C@@H](c1ccccn1)CO2 [Example 140, N-{[(4S)-7-(3,5-Dimethylisoxazol-4-yl)-2-oxo-4-pyridin-2-yl-1,2,4,5-tetrahydroimidazo[1,5,4-de][1,4]benzoxazin-9-yl]methyl}-2-methoxyacetamide] | < 100 | < 100 |  |  |  |
| CNC(=O)c1nc2ccc(-c3c(C)noc3C)c3c2n1[C@@H](c1ccccn1)CO3 [Example 95, (4S)-7-(3,5-Dimethylisoxazol-4-yl)-N-methyl-4-pyridin-2-yl-4,5-dihydroimidazo[1,5,4-de][1,4]benzoxazine-2-carboxamide] | < 100 | < 100 |  |  |  |
| Cc1noc(C)c1-c1ccc2nc([C@@H](O)CO)n3c2c1OC[C@@H]3c1ccccn1 [Example 89, (1R)-1-[(4S)-7-(3,5-Dimethylisoxazol-4-yl)-4-pyridin-2-yl-4,5-dihydroimidazo[1,5,4-de][1,4]benzoxazin-2-yl]ethane-1,2-diol] | < 100 | < 100 |  |  |  |
| Cc1noc(C)c1-c1ccc2nc(N3CCCN(S(C)(=O)=O)CC3)n3c2c1OC[C@@H]3c1ccccn1 [Example 149, (4S)-7-(3,5-Dimethylisoxazol-4-yl)-2-[4-(methylsulfonyl)-1,4-diazepan-1-yl]-4-pyridin-2-yl-4,5-dihydroimidazo[1,5,4-de][1,4]benzoxazine] | < 100 | < 100 |  |  |  |
| Cc1noc(C)c1-c1ccc2nc(N3CC[C@@H](N(C)C(=O)CC#N)C3)n3c2c1OC[C@@H]3c1ccccn1 [Example 152, 2-Cyano-N-{(3R)-1-[(4S)-7-(3,5-dimethylisoxazol-4-yl)-4-pyridin-2-yl-4,5-dihydroimidazo[1,5,4-de][1,4]benzoxazin-2-yl]pyrrolidin-3-yl}-N-methylacetamide] | < 100 | < 100 |  |  |  |
| Cc1noc(C)c1-c1ccc2[nH]c(=O)n3c2c1OCC3c1cccnc1C(N)=O (stereo not drawn) [Example 127, 3-[7-(3,5-Dimethylisoxazol-4-yl)-2-oxo-1,2,4,5-tetrahydroimidazo[1,5,4-de][1,4]benzoxazin-4-yl]pyridine-2-carboxamide trifluoroacetate] |  |  | < 100 | < 100 |  |
| Cc1noc(C)c1-c1cc(C(C)O)c2[nH]c(=O)n3c2c1OC[C@@H]3c1ccccn1 (single isomer, unassigned) [Example 144B] | < 100 | 100 to 1000 |  |  |  |
| Cc1noc(C)c1-c1ccc2[nH]c(=O)n3c2c1OCC3(C(N)=O)c1ccccn1 (stereo not drawn) [Example 74, 7-(3,5-Dimethylisoxazol-4-yl)-2-oxo-4-pyridin-2-yl-1,2,4,5-tetrahydroimidazo[1,5,4-de][1,4]benzoxazine-4-carboxamide 2,2,2-trifluoroacetate] | < 100 | 100 to 1000 |  |  |  |
| Cc1noc(C)c1-c1cc(C2=CCNCC2)c2[nH]c(=O)n3c2c1OC[C@@H]3c1ccccn1 [Example 87, (4S)-7-(3,5-dimethylisoxazol-4-yl)-4-pyridin-2-yl-9-(1,2,3,6-tetrahydropyridin-4-yl)-4,5-dihydroimidazo[1,5,4-de][1,4]benzoxazin-2(1H)-one bis(2,2,2-trifluoroacetate)] |  |  | < 100 |  | 100 to 1000 |
| CC(=O)N1CCCN(c2nc3ccc(-c4c(C)noc4C)c4c3n2[C@@H](c2ccccn2)CO4)CC1 [Example 148, (4S)-2-(4-Acetyl-1,4-diazepan-1-yl)-7-(3,5-dimethylisoxazol-4-yl)-4-pyridin-2-yl-4,5-dihydroimidazo[1,5,4-de][1,4]benzoxazine] | < 100 | < 100 |  |  |  |
| Cc1noc(C)c1-c1cc(Br)c2[nH]c(=O)n3c2c1OCC3c1ccccc1 (stereo not drawn) [Example 45, 9-Bromo-7-(3,5-Dimethylisoxazol-4-yl)-4-phenyl-4,5-dihydroimidazo[1,5,4-de][1,4]benzoxazin-2(1H)-one] | < 100 | < 100 |  |  |  |
| Cc1noc(C)c1-c1ccc2nc(N3CC(O)C3)n3c2c1OCC3c1cccnc1 (single isomer, unassigned) [Example 160C, 1-[7-(3,5-Dimethylisoxazol-4-yl)-4-pyridin-3-yl-4,5-dihydroimidazo[1,5,4-de][1,4]benzoxazin-2-yl]azetidin-3-ol] | 1000 to 10000 | 1000 to 10000 |  |  |  |
| COc1ccc(CNCc2cc(-c3c(C)noc3C)c3c4c2[nH]c(=O)n4C(c2ccccn2)CO3)cc1 (stereo not drawn) [Example 263, 7-(3,5-dimethylisoxazol-4-yl)-9-{[(4-methoxybenzyl)amino]methyl}-4-pyridin-2-yl-4,5-dihydroimidazo[1,5,4-de][1,4]benzoxazin-2(1H)-one] | < 100 | 100 to 1000 |  |  |  |
| Cc1noc(C)c1-c1cc(-c2ccnn2C)c2[nH]c(=O)n3c2c1OC[C@@H]3c1ccccn1 [Example 85, (4S)-7-(3,5-dimethylisoxazol-4-yl)-9-(1-methyl-1H-pyrazol-5-yl)-4-pyridin-2-yl-4,5-dihydroimidazo[1,5,4-de][1,4]benzoxazin-2(1H)-one 2,2,2-trifluoroacetate] | 100 to 1000 | 1000 to 10000 |  |  |  |
| Cc1noc(C)c1-c1cc(Br)c2[nH]c(=O)n3c2c1OCC3c1ccccn1 (single isomer, unassigned) [Example 267B, 9-bromo-7-(3,5-dimethylisoxazol-4-yl)-4-pyridin-2-yl-4,5-dihydroimidazo[1,5,4-de][1,4]benzoxazin-2(1H)-one] | < 100 | < 100 |  |  |  |
| Cc1noc(C)c1-c1cc(-c2ccc(C(=O)N(C)C)nc2)c2[nH]c(=O)n3c2c1OC[C@@H]3c1ccccn1 [Example 82, 5-[(4S)-7-(3,5-dimethylisoxazol-4-yl)-2-oxo-4-pyridin-2-yl-1,2,4,5-tetrahydroimidazo[1,5,4-de][1,4]benzoxazin-9-yl]-N,N-dimethylpyridine-2-carboxamide 2,2,2-bis(trifluoroacetate)] | < 100 | 100 to 1000 |  |  |  |
| C=Cc1nc2ccc(-c3c(C)noc3C)c3c2n1[C@@H](c1ccccn1)CO3 [Example 88, (4S)-7-(3,5-Dimethylisoxazol-4-yl)-4-pyridin-2-yl-2-vinyl-4,5-dihydroimidazo[1,5,4-de][1,4]benzoxazine] | < 100 | < 100 |  |  |  |
| Cc1noc(C)c1-c1ccc2[nH]c(=O)n3c2c1OC(C)(C)C3c1ccccn1 (single isomer, unassigned) [Example 61A, 7-(3,5-Dimethylisoxazol-4-yl)-5,5-dimethyl-4-pyridin-2-yl-4,5-dihydroimidazo[1,5,4-de][1,4]benzoxazin-2(1H)-one] | < 100 | < 100 |  |  |  |
| Cc1noc(C)c1-c1ccc2c3c1CCC(c1ccccc1)n3c(=O)n2C (racemic) [Example 121, 7-(3,5-Dimethylisoxazol-4-yl)-1-methyl-4-phenyl-5,6-dihydro-4H-imidazo[4,5,1-ij]quinolin-2(1H)-one] | < 100 | 100 to 1000 |  |  |  |
